Source: EP0199170A1, “Composition and method for providing cytoprotection of the gastric mucosa in a mammal receiving aspirin” (priority 1985, dated 1986)
Read-outs that look alike come from different tables or passages of the source. Marks after values point to notes of the source that are not given here.

What was measured:
Aspirin Lesions = assay: Gastric cytoprotection against aspirin lesions in adjuvant arthritic rats; type: in vivo, Sprague-Dawley rats; settings: for Area of Lesion (mm^2), Mean + S.E. / No. of Lesions, Mean + S.E. / No. of Rats with Lesions: single daily oral administration for 16 days; for effectiveness as cytoprotectant against aspirin-induced gastric lesions in arthritic rats: coadministered with aspirin in the adjuvant-induced arthritis assay
Procedure: 300 mg/kg for 16 days coadministered with 150 mg/kg of aspirin in an adjuvant-induced arthritis assay [C.J. Pearson, "Experimental Joint Disease", J. Chron. […] At the completion of the assay-the stomachs were excised and examined for the presence or absence of lesions.

[1] = test system: Acute Inflammation In Rats; assay: Carrageenin model of acute inflammation (paw edema); type: in vivo, Sprague-Dawley rats; settings: for inhibition at 100 mg/kg: Rattus norvegicus; for Mean Paw Edema, ml+S.E.: control 1.16±0.1, 9 rats per group
Procedure: Male Sprague-Dawley rats (initial weight of about 200 g.) received a single oral dose of sodium thiosulfate (anhydrous) at either 30, 100 or 300 mg/kg coadministered with 100 mg/kg of aspirin in the carrageenin model of acute inflammation (paw edema) [C.A. Winter et al, "Carrageenin-lnduced Edema in Hind Paw of the Rat as an Assay for Anti-Inflammatory Drugs, "Proc. Soc. Exptl.

[2] = test system: Adjuvant Arthritis In Rats; assay: Adjuvant-induced arthritis assay (chronic inflammation, injected hind paw volume); settings: for inhibition at 150 mg/kg: Rattus norvegicus, po, 384 h; for Injected Hind Paw Volume ml + S.E.: adjuvant control 5.57±0.4, normal control 1.89±0.03; for influence on the antiinflammatory efficacy of aspirin: adjuvant-induced arthritis assay, coadministered with aspirin
Procedure: 300 mg/kg for 16 days coadministered with 150 mg/kg of aspirin in an adjuvant-induced arthritis assay [C.J. Pearson, "Experimental Joint Disease", J. Chron.

[3] = test system: Aspirin-induced Gastric Mucosal Erosions; assay: Aspirin-induced hemorrhagic gastric erosions in fasted rats, lesion number and area by computerized planimetry; type: in vivo, Sprague-Dawley rats; settings: for gastric cytoprotection: coadministered with acidified aspirin 10 mg/100 g, fasted rats; for Aspirin-induced Gastric Mucosal Erosions, percentage of glandular stomach area / Aspirin-induced Gastric Mucosal Erosions, total number of erosions: sacrificed 1 hour after; for Aspirin-induced Gastric Mucosal Erosions, percentage of glandular stomach area: dose 0 group 1.42; for Aspirin-induced Gastric Mucosal Erosions, total number of erosions: dose 0 group 11.90
Procedure: Fasted Sprague-Dwaley female rats were given intragastrically (ig) at least four different doses ranging from 1-30 mg/100 g. body weight of sodium thiosulfate either 30 minutes before or parallel with intragastric administration of 10 mg/100 g body weight of acidified aspirin. Rats were killed one hour after aspirin administration and the number of hemorrhagic gastric erosions (or_ lesions) was determined and the area of erosion was measured by computerized planimetry.
Fasted Sprague-Dawley Female rats were given intragastrically (ig) at least three different doses ranging from 5-30 mg/100 g body weight of 3,3'-thiobis[propanoic acid] either 30 minutes before or parallel with intragastric administration of 10 mg/100 g body weight of acidified aspirin. Rats were killed one hour after aspirin administration and the number of hemorrhagic gastric erosions (or lesions) was determined and the area of erosion was measured by computerized planimetry. 3,3'-Thiobis[propanoic acid]
All of the experiments in this example were performed in female Sprague-Dawley rats having an initial body weight of 150-200 g. […] Before the administration of aspirin, the rats were fasted over night. […] The extent of gastric mucosal injury was evaluated by a Zeiss stereomicroscope coupled with a computerized planimeter which allowed both surface measurement and counting of lesions, according to the published method of Sandor Szabo et al entitled "A Quantitative Method for Assessing the Extent of Experimental Gastric Erosions and Ulcers", J. Pharmacological Methods 13, 59-66, 1985. Light microscopy of formalin-fixed sections was also performed.
Aspirin was suspended in 1% methylcellulose dissolved in 200 mM HCI and was administered at 10 mg/100 g body weight by gavage with rubber tube (Rusch No. 8) and rats were killed one hour later. The study design is presented as follows in Table A.
In the initial experiment, doses of sodium thiosulfate as its pentahydrate were given per os - (p.o.) either 30 minutes or 30 seconds before aspirin. The. 30 second pretreatment is virtually a parallel administration of the compounds.

male Sprague-Dawley rats = assay: Acute oral toxicity in rats; settings: for toxicity: summary statement
From the text: Sodium thiosulfate (anhydrous) was given as a single oral dose to male Sprague-Dawley rats weighing approximately 116-140 g to determine its approximate acute oral LD50. The rats were fasted for four hours before medication, observed for seven days following medication and all surviving rats sacrificed and necropsied at the completion of the study.

[4] = Table D: 150 mg/kg each, controls 0
[5] = Table D: 150 mg/kg each, controls 0/10
[6] = Table D: 150 mg/kg each, controls 0, listed as aspirin
[7] = Table E: aspirin 150 mg/kg, Na thiosulfate 300 mg/kg, controls 0.04±0.04
[8] = Table E: aspirin 150 mg/kg, Na thiosulfate 300 mg/kg, controls 0.1±0.1
[9] = Table E: aspirin 150 mg/kg, Na thiosulfate 300 mg/kg, controls 1/10
[10] = Table G: 150 mg/kg each, single oral daily doses for 16 days
[11] = Table H: aspirin 150 mg/kg, Na thiosulfate 300 mg/kg, single oral daily doses for 16 days
[12] = parallel administration with aspirin 10 mg/100 g, converted from mg/100 g pentahydrate

Compound | Area of Lesion (mm^2), Mean + S.E. (Aspirin Lesions; [4]) | No. of Lesions, Mean + S.E. (Aspirin Lesions; [4]) | No. of Rats with Lesions (Aspirin Lesions; [5]) | Area of Lesion (mm^2), Mean + S.E. (Aspirin Lesions; [7]) | No. of Lesions, Mean + S.E. (Aspirin Lesions; [8]) | No. of Rats with Lesions (Aspirin Lesions; [9]) | Mean Paw Edema, ml+S.E. ([1]; single oral dose 100 mg/kg) | Injected Hind Paw Volume ml + S.E. [2, 10] | gastric cytoprotection ([3]; intragastric) | effectiveness as cytoprotectant against aspirin-induced gastric lesions in arthritic rats (Aspirin Lesions) | toxicity (male Sprague-Dawley rats) | influence on the antiinflammatory efficacy of aspirin [2] | minimum statistically significant effective dose (MED) [3, 12] | further results
CC(=O)Oc1ccccc1C(=O)O [Aspirin, aspirin] | 16.02±3.82 mm^2 | 15.2±2.9 | 10/10 | 11.61±4.42 mm^2 | 25.7±4.9 | 9/9 | 0.65 ± 0.1 mL | 3.31 ± 0.2 mL |  |  |  |  |  | Area of Lesion (mm^2), Mean + S.E. (Aspirin Lesions; [6]): 16.02 mm^2; No. of Lesions, Mean + S.E. (Aspirin Lesions; [6]): 15.2; Area of Lesion (mm^2), Mean + S.E. (Aspirin Lesions; Table E: aspirin 150 mg/kg, Na thiosulfate 300 mg/kg, controls 0.04±0.04, listed as aspirin): 11.61 mm^2; No. of Lesions, Mean + S.E. (Aspirin Lesions; Table E: aspirin 150 mg/kg, Na thiosulfate 300 mg/kg, controls 0.1±0.1, listed as aspirin): 25.7; inhibition at 100 mg/kg ([1]; po): 44%; inhibition at 150 mg/kg [2, 10]: 61%; inhibition at 150 mg/kg [2, 11]: 43%
CCCCC1C(=O)N(c2ccccc2)N(c2ccccc2)C1=O [Phenylbutazone, phenylbutazone] |  |  |  |  |  |  | 0.41 ± 0.03 mL |  |  |  |  |  |  | inhibition at 100 mg/kg ([1]; single oral dose 100 mg/kg, paw edema vs control, read-out: % Inhibition): 65%
O=C(O)CCSCCC(=O)O [TBPA, 3,3'-Thiobis[propanoic acid]] |  |  |  |  |  |  |  |  | significant (p<0.01) gastric cytoprotection | effectiveness of TBPA as cytoprotectant against ASA-induced gastric lesions was also demonstrated | low order of toxicity | did not reduce the antiinflammatory efficacy of ASA |  | minimal effective dose ([3]; Rattus norvegicus, po, parallel administration with acidified aspirin 10 mg/100 g, intragastric, rats, area and number of lesions, read-out: minimum statistically significant effective dose (MED)): ~300 mg/kg
anhydrous sodium thiosulfate [Na thiosulfate] | 0.12±0.12 mm^2 | 0.4±0.4 | 1/5 | 0 mm^2 | 0 | 0/5 |  | 5.21 ± 0.5 mL |  | effective in reducing the number and size of lesions | low order of acute toxicity | did not influence the anti-inflammatory efficacy of aspirin | about 32 mg/kg | minimum statistically significant effective dose, as anhydrous form ([3]; coadministered with aspirin 10 mg/100 g, anhydrous equivalent of the pentahydrate dose): about 3 mg/100 g; gastric irritancy (male Sprague-Dawley rats; at the very high dose level of 7,000 mg/kg, single oral dose): gastric irritancy was observed; approximate acute oral LD50 (ALDsD) (male Sprague-Dawley rats; single oral dose, male rats fasted four hours, observed 7 days): 7,000 mg/kg; effect on the development of arthritis ([2]; 150 or 300 mg/kg alone, single oral daily doses for 16 days): did not demonstrate an effect on the development of arthritis; % Inhibition [2, 10]: 10%; % Inhibition [2, 11]: 2%
sodium thiosulfate |  |  |  |  |  |  |  |  | significant (p<0.01) gastric cytoprotection |  | low order of toxicity | did not reduce the antiinflammatory efficacy of aspirin |  | 
sodium thiosulfate pentahydrate |  |  |  |  |  |  |  |  |  |  |  |  | about 50 mg/kg | protection against aspirin-induced gastric erosions ([3]; given p.o. 30 minutes before aspirin 10 mg/100 g): dose-dependent protection; minimum statistically significant effective dose (MED) ([3]; parallel administration with acidified aspirin 10 mg/100 g, intragastric, rats, area and number of lesions, listed as sodium thiosulfate as its pentahydrate): about 5 mg/100 g; minimum statistically significant effective dose (MED) ([3]; parallel administration with aspirin 10 mg/100 g, converted from mg/100 g): about 201 µmol/kg; Aspirin-induced Gastric Mucosal Erosions, percentage of glandular stomach area ([3]; single oral dose 1.0 mg/100 g body weight, aspirin concomitantly 10 mg/100 g in acidified 1% methylcellulose): 0.89 percentage of glandular stomach area; Aspirin-induced Gastric Mucosal Erosions, total number of erosions ([3]; single oral dose 1.0 mg/100 g body weight, aspirin concomitantly 10 mg/100 g): 6.67; Aspirin-induced Gastric Mucosal Erosions, percentage of glandular stomach area ([3]; single oral dose 5.0 mg/100 g body weight, aspirin concomitantly 10 mg/100 g, p<0.01): 0.18* percentage of glandular stomach area; Aspirin-induced Gastric Mucosal Erosions, total number of erosions ([3]; single oral dose 5.0 mg/100 g body weight, aspirin concomitantly 10 mg/100 g, p≤0.01): 1.56*; Aspirin-induced Gastric Mucosal Erosions, percentage of glandular stomach area ([3]; single oral dose 10.0 mg/100 g body weight, aspirin concomitantly 10 mg/100 g, p<0.01): 0.27* percentage of glandular stomach area; Aspirin-induced Gastric Mucosal Erosions, total number of erosions ([3]; single oral dose 10.0 mg/100 g body weight, aspirin concomitantly 10 mg/100 g, p≤0.01): 1.78*; Aspirin-induced Gastric Mucosal Erosions, percentage of glandular stomach area ([3]; single oral dose 30.0 mg/100 g body weight, aspirin concomitantly 10 mg/100 g, p<0.01): 0* percentage of glandular stomach area; Aspirin-induced Gastric Mucosal Erosions, total number of erosions ([3]; single oral dose 30.0 mg/100 g body weight, aspirin concomitantly 10 mg/100 g, p≤0.01): 0*
